Legend:
[1] = pH stability of fluorescence intensity; assay type: physicochemical; conditions: Example 2; FIG. 22B
Description: With regard to assessment of photoluminescence properties of labeled CNF, photoluminescence excitation (PLE) spectroscopy maps and line scans were obtained with spectrofluorometer and corrected for the instrument's source spectral distribution and detector spectral response. Excitation wavelengths were scanned in 5 nm increments using a 450 W xenon lamp through a 2 nm slit. Emitted light was collected at 90° and measured using a liquid N2-cooled InGaAs detector over 2 nm increments through a 2 nm slit. The fluorescence emission spectra of mDTEB-CNF and mDTEB-seCNF were created using an excitation wavelength (λEx) of 514 nm with emission wavelengths from 530 nm to 650 nm. […] The pH stability of mDTEB-CNF and mDTEB-seCNF were evaluated by measuring fluorescence intensity using a Nanolog-3 spectrofluorometer. Buffered solutions containing 0.5 mg/mL labeled CNF in the range of pH 2 to 10 were equilibrated to 37° C., and the fluorescence intensity was measured at λEm 540 nm. […] The photoluminescence spectra of autoclaved washed fibers, the collected supernatants, and the controls were recorded using the spectrofluorometer as described above. The concentration-dependence of the labeled CNF fluorescence was assessed by measuring the fluorescence intensity of labeled CNF diluted to concentrations between 2 μg/mL and 2 mg/mL using PBS buffer or deionized water. […]

[2] = Photoluminescence excitation/emission and absorption spectra; assay type: physicochemical
Description: With regard to assessment of photoluminescence properties of labeled CNF, photoluminescence excitation (PLE) spectroscopy maps and line scans were obtained with spectrofluorometer and corrected for the instrument's source spectral distribution and detector spectral response. Excitation wavelengths were scanned in 5 nm increments using a 450 W xenon lamp through a 2 nm slit. Emitted light was collected at 90° and measured using a liquid N2-cooled InGaAs detector over 2 nm increments through a 2 nm slit. The fluorescence emission spectra of mDTEB-CNF and mDTEB-seCNF were created using an excitation wavelength (λEx) of 514 nm with emission wavelengths from 530 nm to 650 nm. An excitation plot was created with an emission wavelength (λEm) of 540 nm with excitation wavelengths from 400 nm to 530 nm. The UV-Vis absorption spectra were collected with a UV-Vis-NIR spectrophotometer. The pH stability of mDTEB-CNF and mDTEB-seCNF were evaluated by measuring fluorescence intensity using a Nanolog-3 spectrofluorometer. Buffered solutions containing 0.5 mg/mL labeled CNF in the range of pH 2 to 10 were equilibrated to 37° C., and the fluorescence intensity was measured at λEm 540 nm. […] The photoluminescence spectra of autoclaved washed fibers, the collected supernatants, and the controls were recorded using the spectrofluorometer as described above. The concentration-dependence of the labeled CNF fluorescence was assessed by measuring the fluorescence intensity of labeled CNF diluted to concentrations between 2 μg/mL and 2 mg/mL using PBS buffer or deionized water. Fluorescence intensity was recorded on a multimode microplate reader equipped with monochromator optics at λEx 514 nm and λEm 540 nm. […] Each suspension was measured in triplicate using 200 μL samples. […] For fluorescence images, dilute labeled CNF suspensions were deposited onto an ultraviolet ozone (UVO)-treated glass slides and dried at room temperature. […]
Photoluminescence properties (excitation and emission spectra) of the mDTEB dye and mDTEB-seCNF were recorded using fluorescence spectroscopy. […]

emission intensity as a function of pH [1]: stable to a wide range of pH values
Stokes shift [2]: 36 nm
absorbance peak ([2]; FIG. 22A, in water): 514 nm
maximum emission intensity wavelength / emission peak ([2]; fluorescence spectroscopy): 540 nm
Structure (SMILES): CCC1=C(C)C2=C(c3ccc(Oc4nc(Cl)nc(Cl)n4)cc3)c3c(C)c(CC)c(C)n3[B-](F)(F)[N+]2=C1C [mDTEB, 10-(4-((4,6-dichloro-1,3,5-triazin-2-yl)oxy)phenyl)-2,8-diethyl-5,5-difluoro-1,3,7,9-tetramethyl-5H-414,514-dipyrrolo[1,2-c:2′,1′-f] [1,3,2]diazaborinine]

From US11939345B2, “Physiologically stable fluorophore and performing fluorescence probing” (Government of the United States of America, as represented …, priority 2019, dated 2024)
